Assay results: patent EP2689855B1, “Modified micronization device and use thereof” (Oekomineral AG, priority 2012, dated 2014)
≈ marks a conversion by molar mass, not a printed value.

What was measured:
Type in all cases: physicochemical
[1] = Water solubility measurement of micronized Pterostilbene; conditions: thermodynamic from solid
Protocol: 1.00 kg of Pterostilbene (98% purity, Organic Herb, China) 50 µm of crystalline particles as model substance were subjected to micronization from present invention with additional maintaining of low temperature (20 °C) of substance via slow liquid nitrogen stream flow addition through neck feeder. In this preparation discs with blades in the shape of cubes and extruded triangles were used (Figure 7) , according to the present invention.
Such prepared samples of micronized Pterostilbene were subjected to particles size analyses and water solubility measurement.

[2] = Amorphous content / crystalline disorder by isothermal calorimetry (IC TAM 3); conditions: ursolic acid
Protocol: (§1) 1 kg of each sample of ursolic acid (98% purity, Sigma Aldrich) of an average particle size of 30 µm was micronized five times in devices having different hitting elements. The discs were cooled through a feeder opening with liquid nitrogen spraying to avoid overheating of the heat-sensitive substance.
The micronized samples were analyzed for particle size (Malvern MasterSizer 2000), while the extent of crystalline disorder of particles was quantified with isothermal calorimetry (IC TAM 3, TA instruments, USA). Data was recorded with proprietary software Digitam 4.2.

[3] = Particle size analysis (Malvern MasterSizer 2000) of micronized samples; conditions: ursolic acid
Excerpt: The influence of the shape of the blades on the efficiency of the micronization has been studied by the use of the micronization device shown in Figures 1 and 2 from the prior art of the following technical characteristics: • (i) diameter of discs (Ø) of micronizer was 370 mm; • (ii) number of layers of hitting elements (blades) on the discs was 3 on primary and 2 on secondary disc; • (iii) number of blades on each of wreaths of discs was 20/16 (outer/inner wreath) from one side; and 18/16 (outer/inner wreath) from the other side of the micronizer; • (iv) the rotation velocity was 10000 rpm;
1 kg of each sample of same zeolite clinoptilolite was micronized by using the device according to the prior art and three different hitting elements as depicted in figures 5, 6 and 8. The disintegrators are characterized by the following data: • 1. Plates formed according to US4406409 A (Figure 5; Micronization-1); • 2. Slightly curved and indented plates according to HR990263 A2 (Figure 6; Micronizationt-2); and • 3. The hitting elements according to the present invention (Figure 8; Micronization-3) […]
as §1
The micronized samples were analyzed for particle size (Malvern MasterSizer 2000), while the extent of crystalline disorder of particles was quantified with isothermal calorimetry (IC TAM 3, TA instruments, USA). Data was recorded with proprietary software Digitam 4.2. […]

SMILES: COc1cc(/C=C/c2ccc(O)cc2)cc(OC)c1 [Pterostilbene]
- solubility ([1]; after seven repeated processes of micronization, blades of present invention (Figure 7)): 128 µg/mL (≈ 499 µM)
- solubility ([1]; before micronization): 23 µg/mL (≈ 89.7 µM)

SMILES: C[C@H]1[C@H](C)CC[C@]2(C(=O)O)CC[C@]3(C)C(=CC[C@@H]4[C@@]5(C)CC[C@H](O)C(C)(C)[C@@H]5CC[C@]43C)[C@H]12 [ursolic acid]
- Amorphous Content (%, w/w) ([2]; MICRONIZATION-1, five repeated micronization procedures): 3.68 %, w/w
- Amorphous Content (%, w/w) ([2]; MICRONIZATION-2, five repeated micronization procedures): 6.12 %, w/w
- Amorphous Content (%, w/w) ([2]; MICRONIZATION-3, five repeated micronization procedures): 19.23 %, w/w
- Volume (%) under ([3]; Particles size 0.105 µm, MICRONIZATION-1, five repeated micronization procedures): 0.00%
- Volume (%) under ([3]; Particles size 0.105 µm, MICRONIZATION-2, five repeated micronization procedures): 0.00%
- Volume (%) under ([3]; Particles size 0.105 µm, MICRONIZATION-3, five repeated micronization procedures): 0.00%
- Volume (%) under ([3]; Particles size 0.120 µm, MICRONIZATION-1, five repeated micronization procedures): 0.00%
- Volume (%) under ([3]; Particles size 0.120 µm, MICRONIZATION-2, five repeated micronization procedures): 0.00%
- Volume (%) under ([3]; Particles size 0.120 µm, MICRONIZATION-3, five repeated micronization procedures): 0.00%
- Volume (%) under ([3]; Particles size 0.138 µm, MICRONIZATION-1, five repeated micronization procedures): 0.00%
- Volume (%) under ([3]; Particles size 0.138 µm, MICRONIZATION-2, five repeated micronization procedures): 0.00%
- Volume (%) under ([3]; Particles size 0.138 µm, MICRONIZATION-3, five repeated micronization procedures): 0.00%
- Volume (%) under ([3]; Particles size 0.158 µm, MICRONIZATION-1, five repeated micronization procedures): 0.00%
- Volume (%) under ([3]; Particles size 0.158 µm, MICRONIZATION-2, five repeated micronization procedures): 0.00%
- Volume (%) under ([3]; Particles size 0.158 µm, MICRONIZATION-3, five repeated micronization procedures): 0.28%
- Volume (%) under ([3]; Particles size 0.182 µm, MICRONIZATION-1, five repeated micronization procedures): 0.00%
- Volume (%) under ([3]; Particles size 0.182 µm, MICRONIZATION-2, five repeated micronization procedures): 0.00%
- Volume (%) under ([3]; Particles size 0.182 µm, MICRONIZATION-3, five repeated micronization procedures): 1.38%
- Volume (%) under ([3]; Particles size 0.209 µm, MICRONIZATION-1, five repeated micronization procedures): 0.00%
- Volume (%) under ([3]; Particles size 0.209 µm, MICRONIZATION-2, five repeated micronization procedures): 0.12%
- Volume (%) under ([3]; Particles size 0.209 µm, MICRONIZATION-3, five repeated micronization procedures): 2.73%
- Volume (%) under ([3]; Particles size 0.240 µm, MICRONIZATION-1, five repeated micronization procedures): 0.00%
- Volume (%) under ([3]; Particles size 0.240 µm, MICRONIZATION-2, five repeated micronization procedures): 0.46%
- Volume (%) under ([3]; Particles size 0.240 µm, MICRONIZATION-3, five repeated micronization procedures): 3.69%
- Volume (%) under ([3]; Particles size 0.275 µm, MICRONIZATION-1, five repeated micronization procedures): 0.01%
- Volume (%) under ([3]; Particles size 0.275 µm, MICRONIZATION-2, five repeated micronization procedures): 1.19%
- Volume (%) under ([3]; Particles size 0.275 µm, MICRONIZATION-3, five repeated micronization procedures): 5.39%
- Volume (%) under ([3]; Particles size 0.316 µm, MICRONIZATION-1, five repeated micronization procedures): 0.06%
- Volume (%) under ([3]; Particles size 0.316 µm, MICRONIZATION-2, five repeated micronization procedures): 1.97%
- Volume (%) under ([3]; Particles size 0.316 µm, MICRONIZATION-3, five repeated micronization procedures): 8.42%
- Volume (%) under ([3]; Particles size 0.363 µm, MICRONIZATION-1, five repeated micronization procedures): 0.23%
- Volume (%) under ([3]; Particles size 0.363 µm, MICRONIZATION-2, five repeated micronization procedures): 2.83%
- Volume (%) under ([3]; Particles size 0.363 µm, MICRONIZATION-3, five repeated micronization procedures): 11.76%
- Volume (%) under ([3]; Particles size 0.417 µm, MICRONIZATION-1, five repeated micronization procedures): 0.50%
- Volume (%) under ([3]; Particles size 0.417 µm, MICRONIZATION-2, five repeated micronization procedures): 4.09%
- Volume (%) under ([3]; Particles size 0.417 µm, MICRONIZATION-3, five repeated micronization procedures): 14.01%
- Volume (%) under ([3]; Particles size 0.479 µm, MICRONIZATION-1, five repeated micronization procedures): 0.87%
- Volume (%) under ([3]; Particles size 0.479 µm, MICRONIZATION-2, five repeated micronization procedures): 5.36%
- Volume (%) under ([3]; Particles size 0.479 µm, MICRONIZATION-3, five repeated micronization procedures): 19.32%
- Volume (%) under ([3]; Particles size 0.550 µm, MICRONIZATION-1, five repeated micronization procedures): 1.12%
- Volume (%) under ([3]; Particles size 0.550 µm, MICRONIZATION-2, five repeated micronization procedures): 7.01%
- Volume (%) under ([3]; Particles size 0.550 µm, MICRONIZATION-3, five repeated micronization procedures): 25.19%
- Volume (%) under ([3]; Particles size 0.631 µm, MICRONIZATION-1, five repeated micronization procedures): 2.02%
- Volume (%) under ([3]; Particles size 0.631 µm, MICRONIZATION-2, five repeated micronization procedures): 9.13%
- Volume (%) under ([3]; Particles size 0.631 µm, MICRONIZATION-3, five repeated micronization procedures): 31.12%
- Volume (%) under ([3]; Particles size 0.724 µm, MICRONIZATION-1, five repeated micronization procedures): 3.29%
- Volume (%) under ([3]; Particles size 0.724 µm, MICRONIZATION-2, five repeated micronization procedures): 11.51%
- Volume (%) under ([3]; Particles size 0.724 µm, MICRONIZATION-3, five repeated micronization procedures): 36.14%
- Volume (%) under ([3]; Particles size 0.832 µm, MICRONIZATION-1, five repeated micronization procedures): 4.78%
- Volume (%) under ([3]; Particles size 0.832 µm, MICRONIZATION-2, five repeated micronization procedures): 13.61%
- Volume (%) under ([3]; Particles size 0.832 µm, MICRONIZATION-3, five repeated micronization procedures): 42.72%
- Volume (%) under ([3]; Particles size 0.955 µm, MICRONIZATION-1, five repeated micronization procedures): 6.12%
- Volume (%) under ([3]; Particles size 0.955 µm, MICRONIZATION-2, five repeated micronization procedures): 16.29%
- Volume (%) under ([3]; Particles size 0.955 µm, MICRONIZATION-3, five repeated micronization procedures): 50.02%
- Volume (%) under ([3]; Particles size 1.096 µm, MICRONIZATION-1, five repeated micronization procedures): 8.44%
- Volume (%) under ([3]; Particles size 1.096 µm, MICRONIZATION-2, five repeated micronization procedures): 19.17%
- Volume (%) under ([3]; Particles size 1.096 µm, MICRONIZATION-3, five repeated micronization procedures): 59.80%
